# Assay: Solubility of paclitaxel in olive oil, castor oil and hydrophobic excipients (crystal formation in dried sample)
# Assay type: physicochemical
# Settings: for solubility of paclitaxel (crystal formation in the dried sample): 0.5 ml paclitaxel chloroform solution (10 mg/ml), volatilized overnight
# Experimental: The specific experimental method was as follows. […] The chloroform solution was mixed with 0.5 ml of chloroform, from which 0.5 ml of diluent was taken and two-fold serial dilution was performed by using chloroform. Then 0.5 ml of a chloroform solution of paclitaxel (10 mg/ml) was added to the above-mentioned sample after the two-fold serial dilution, and then left in a hood to be naturally volatilized overnight. Crystal formation in the dried sample was observed and recorded.
compound,measurement,setting,value
CCCCCCCC/C=C\CCCCCCCCNC(=O)CC[C@@H](C)[C@H]1CC[C@H]2[C@@H]3[C@H](OC(=O)CNC(=O)[C@H](CCCCNC(=O)OC(C)(C)C)NC(=O)OCC4c5ccccc5-c5ccccc54)C[C@@H]4C[C@H](OC(=O)CNC(=O)[C@H](CCCCNC(=O)OC(C)(C)C)NC(=O)OCC5c6ccccc6-c6ccccc65)CC[C@]4(C)[C@H]3C[C@H](OC(=O)CNC(=O)[C@H](CCCCNC(=O)OC(C)(C)C)NC(=O)OCC3c4ccccc4-c4ccccc43)[C@]12C [Example 4],solubility of paclitaxel (crystal formation in the dried sample),0.98 mg hydrophobic excipient,+
same,solubility of paclitaxel (crystal formation in the dried sample),1.95 mg hydrophobic excipient,+
same,solubility of paclitaxel (crystal formation in the dried sample),3.90 mg hydrophobic excipient,+
same,solubility of paclitaxel (crystal formation in the dried sample),7.81 mg hydrophobic excipient,+/−
same,solubility of paclitaxel (crystal formation in the dried sample),15.65 mg hydrophobic excipient,−
same,solubility of paclitaxel (crystal formation in the dried sample),31.30 mg hydrophobic excipient,−
same,solubility of paclitaxel (crystal formation in the dried sample),62.50 mg hydrophobic excipient,−
same,solubility of paclitaxel (crystal formation in the dried sample),125.00 mg hydrophobic excipient,−
same,solubility of paclitaxel (crystal formation in the dried sample),250.00 mg hydrophobic excipient,−
same,"solubility of paclitaxel in the excipient, comparison in words","compared with olive oil and castor oil, from Table 1",greater than that in olive oil and castor oil
